We go through 11 compounds from ChEMBL document CHEMBL1201862, “PubChem BioAssay data set” (2004).

Test systems include 786-0; A549; HCT-15; HL-60; HOP-62; HT-29; IGROV-1; MDA-MB-231; OVCAR-3; OVCAR-4; OVCAR-5; SF-295; SK-MEL-28; SN12C; SNB-19; U-251; UACC-257; UACC-62; Malme-3M; SR.
Holding throughout (assay): growth of human tumour cells (NCI), 48 h

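48-hour exposure; five concentrations; linearly interpolated endpoints. At the GI50, growth is halved.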 Calls of active or inactive are those of the source. No stated cut-off is given here; in the data, active = GI50 up to about 1.1 µM and inactive = higher.

For the compound `CCN1C2=NCCN2S(=O)(=O)c2ccccc21`, the GI50 in the test on 786-0 is > 100 µM (inactive); in the test on A549, > 100 µM (inactive); with HCT-15, over 100 µM; with HL-60, > 100 µM (inactive); in the test with HOP-62 it was > 100 µM (inactive); in the test on HT-29, > 100 µM (inactive). Besides, the GI50 in the test with IGROV-1, with MDA-MB-231, in the test with OVCAR-3, with OVCAR-4, with OVCAR-5 and in the test with SF-295 was > 100 µM (inactive) in each case. Besides, the GI50 in the test with SK-MEL-28, with SN12C, in the test with SNB-19, in the test on U-251, in the test on UACC-257 and in the test with UACC-62 was > 100 µM (inactive) throughout.
`O=C(N/C(=C\c1cccc([N+](=O)[O-])c1)c1nc2c(O)nc(S)nc2[nH]1)c1ccccc1`: the GI50 is > 100 µM (inactive) with 786-0; > 100 µM (inactive) in the test on A549; over 100 µM with HCT-15; 69.3 µM (inactive) in the test on HL-60; > 100 µM (inactive) in the test with HOP-62; > 100 µM (inactive) in the test on HT-29. Further, the GI50 with IGROV-1, in the test with Malme-3M, in the test with OVCAR-3, in the test on OVCAR-4, with OVCAR-5 and in the test on SF-295 was > 100 µM (inactive) in each case. In addition, the GI50 in the test with SK-MEL-28, in the test with SN12C, in the test with SNB-19, in the test with SR, with U-251 and in the test on UACC-257 was > 100 µM (inactive) throughout. Moreover, the GI50 in the test with UACC-62 is > 100 µM (inactive).
For the compound `CN(C)CCNC(=O)Cn1ccc(=O)c2ccc([N+](=O)[O-])cc21`, the GI50 was > 100 µM (inactive) in the test on 786-0; > 100 µM (inactive) in the test on A549; 73.8 µM in the test on HCT-15; > 100 µM (inactive) with HL-60; > 100 µM (inactive) with HOP-62; 52 µM (inactive) in the test with HT-29. In addition, the GI50 in the test with IGROV-1 is > 100 µM (inactive); with Malme-3M, 44.7 µM (inactive); with OVCAR-3, 38.2 µM (inactive); in the test on OVCAR-4, 17.5 µM (inactive); in the test with OVCAR-5, > 100 µM (inactive); with SF-295 it was > 100 µM (inactive). Moreover, the GI50 with SK-MEL-28, in the test on SN12C, in the test on SNB-19, with SR, with U-251 and in the test with UACC-257 was > 100 µM (inactive) in each case. In the test on UACC-62, the GI50 is > 100 µM (inactive).
Regarding `CCCOc1nc(N)c2cnn(C3CCCCO3)c2n1` (stereo unspecified), the GI50 was > 100 µM (inactive) in the test with 786-0; > 100 µM (inactive) in the test with A549; over 100 µM in the test on HCT-15; > 100 µM (inactive) with HL-60; > 100 µM (inactive) in the test on HOP-62; > 100 µM (inactive) in the test with HT-29. Further, the GI50 with IGROV-1, in the test on Malme-3M, in the test on OVCAR-3, in the test on OVCAR-4, in the test on OVCAR-5 and in the test on SF-295 was > 100 µM (inactive) throughout. The GI50 with SK-MEL-28, in the test on SN12C, in the test on SNB-19, with SR, with U-251 and with UACC-257 was > 100 µM (inactive) in each case. The GI50 with UACC-62 is > 100 µM (inactive).
`S=C(S)NCC1CCC(CNC(=S)S)CC1` (stereo unspecified): the GI50 was 4.63 µM (inactive) with 786-0; > 100 µM (inactive) in the test with A549; 23.6 µM with HCT-15; 48.9 µM (inactive) in the test with HL-60; 20.7 µM (inactive) with HOP-62; 17.7 µM (inactive) in the test on HT-29. Moreover, the GI50 in the test with IGROV-1 is 18.3 µM (inactive); with MDA-MB-231 it was 29.2 µM (inactive); with Malme-3M, 22.8 µM (inactive); in the test on OVCAR-3 it was 16.5 µM (inactive); in the test with OVCAR-4, 42.8 µM (inactive); in the test with OVCAR-5 it was > 100 µM (inactive). For the same compound, the GI50 in the test on SF-295 was > 100 µM (inactive); in the test with SK-MEL-28, 56.2 µM (inactive); with SN12C, 20.6 µM (inactive); in the test with SNB-19 it was > 100 µM (inactive); with U-251, 20.1 µM (inactive); with UACC-257, 26.3 µM (inactive). Further, in the test on UACC-62, the GI50 is 34.4 µM (inactive).
On to `CC(C)(C)NC(=O)N1N=C(c2ccccc2)C1c1ccccc1` (stereo unspecified), for which the GI50 in the test on 786-0 was 15.7 µM (inactive); in the test on A549, 31.5 µM (inactive); in the test with HCT-15 it was 23.9 µM; with HL-60, 32.6 µM (inactive); with HT-29, 18 µM (inactive); in the test on IGROV-1, 59.8 µM (inactive). The GI50 with MDA-MB-231 was 95.9 µM (inactive); with Malme-3M it was 25.3 µM (inactive); with OVCAR-3 it was 21.5 µM (inactive); in the test with OVCAR-4 it was 56.5 µM (inactive); in the test with OVCAR-5 it was > 100 µM (inactive); in the test on SF-295, 35.6 µM (inactive). The GI50 was 48.3 µM (inactive) in the test on SK-MEL-28; 43.5 µM (inactive) in the test with SN12C; 34.3 µM (inactive) with SNB-19; 69.3 µM (inactive) with U-251; 25.5 µM (inactive) in the test on UACC-257; 52.6 µM (inactive) with UACC-62.
On to `Cn1c(=O)cc(NCc2ccc(Cl)cc2)[nH]c1=O`, for which the GI50 in the test on 786-0 was 54 µM (inactive); with A549, > 100 µM (inactive); in the test on HCT-15, over 100 µM; with HOP-62, 22.4 µM (inactive); in the test with HT-29, > 100 µM (inactive); with IGROV-1, > 100 µM (inactive). Moreover, the GI50 is 49.2 µM (inactive) in the test with MDA-MB-231; 73.3 µM (inactive) in the test on Malme-3M; > 100 µM (inactive) in the test on OVCAR-3; > 100 µM (inactive) in the test on OVCAR-4; > 100 µM (inactive) in the test on OVCAR-5; 30.3 µM (inactive) with SF-295. Also, the GI50 in the test with SK-MEL-28 is > 100 µM (inactive); with SN12C, > 100 µM (inactive); in the test with SNB-19, 43.3 µM (inactive); with U-251 it was 40.3 µM (inactive); with UACC-257, > 100 µM (inactive); in the test on UACC-62, 30.8 µM (inactive).
On to `CNC(=O)c1nc[nH]c1/N=N/N(C)N`, for which the GI50 is > 100 µM (inactive) with 786-0; > 100 µM (inactive) in the test with A549; over 100 µM in the test with HCT-15; > 100 µM (inactive) with HOP-62; > 100 µM (inactive) in the test on HT-29; > 100 µM (inactive) with IGROV-1. The GI50 with MDA-MB-231, in the test with Malme-3M, in the test on OVCAR-3, with OVCAR-4, in the test with OVCAR-5 and in the test on SF-295 was > 100 µM (inactive) throughout. For the same compound, the GI50 in the test on SK-MEL-28, in the test on SN12C, in the test with U-251, in the test on UACC-257 and in the test on UACC-62 was > 100 µM (inactive) throughout.
As for `C=CCN(c1cc(OCc2ccccc2)c2c(c(C)cn2S(=O)(=O)c2ccc([N+](=O)[O-])cc2)c1[N+](=O)[O-])S(C)(=O)=O`, the GI50 is > 100 µM (inactive) with 786-0; > 84.5 µM (inactive) in the test with A549; 31.6 µM in the test with HCT-15; > 100 µM (inactive) in the test with HOP-62; 8.77 µM (inactive) in the test on HT-29; > 100 µM (inactive) in the test on IGROV-1. In addition, the GI50 with MDA-MB-231 was > 89.5 µM (inactive); with Malme-3M, > 100 µM (inactive); in the test on OVCAR-3 it was > 100 µM (inactive); in the test on OVCAR-4 it was > 100 µM (inactive); with OVCAR-5 it was > 100 µM (inactive); in the test on SF-295, > 78.5 µM (inactive). Further, the GI50 in the test on SK-MEL-28, in the test on SN12C, with SNB-19, in the test on U-251, in the test with UACC-257 and in the test with UACC-62 was > 100 µM (inactive) throughout.
For `O=C1C[C@@H](c2ccccc2)O[C@@H](c2ccccc2)C1`, the GI50 is > 100 µM (inactive) in the test on 786-0; > 100 µM (inactive) in the test on A549; over 100 µM with HCT-15; > 100 µM (inactive) in the test with HOP-62; > 100 µM (inactive) with HT-29; > 100 µM (inactive) with IGROV-1. The GI50 in the test on MDA-MB-231, with Malme-3M, in the test on OVCAR-3, in the test with OVCAR-4, in the test on OVCAR-5 and in the test on SF-295 was > 100 µM (inactive) throughout. Besides, the GI50 in the test on SN12C is 84.7 µM (inactive); in the test with SNB-19, > 100 µM (inactive); with U-251, > 100 µM (inactive); in the test with UACC-257, > 100 µM (inactive); in the test on UACC-62, > 100 µM (inactive).
As to `NNc1ccccc1Cl`, the GI50 is > 100 µM (inactive) with 786-0; > 100 µM (inactive) in the test on A549; over 100 µM in the test with HCT-15; 2.88 µM (inactive) with HL-60; > 100 µM (inactive) with HOP-62; > 100 µM (inactive) in the test with HT-29. Besides, the GI50 with IGROV-1 is > 100 µM (inactive); in the test with MDA-MB-231, > 100 µM (inactive); in the test with Malme-3M, > 100 µM (inactive); with OVCAR-3, 38.7 µM (inactive); with OVCAR-4, 91.2 µM (inactive); in the test on OVCAR-5, > 100 µM (inactive). Further, the GI50 in the test with SF-295 was 27.3 µM (inactive); in the test on SK-MEL-28, > 100 µM (inactive); with SN12C, > 100 µM (inactive); in the test with SNB-19 it was > 100 µM (inactive); in the test with U-251, 48.4 µM (inactive); with UACC-257, > 100 µM (inactive). In the test with UACC-62, the GI50 is 23.4 µM (inactive).
